In US10392378B2, “Derivatives of 5-phenyl- or 5-heteroarylathiazol-2-carboxylic amide useful for the treatment of inter alia cystic fibrosis” (Proteostasis Therapeutics, Inc., priority 2014, dated 2019):

Experiments:
ΔF508-CFTR [1] = target: T1, ΔF508-CFTR (Homo sapiens, UniProt P13569, DEL508-508); experiment: hBE equivalent current (Ieq) assay; type: cell-based; details: compound at 10 uM and VX-809 at 1 uM; primary hBE cells homozygous ΔF508; 24 hours treatment
T1 construct: Primary lung epithelial cells homozygous for the Cystic Fibrosis-causing ΔF508 mutation; endogenous in cells; host or cells: primary human bronchial (lung) epithelial cells homozygous for ΔF508, differentiated at air-liquid interface
T1 sequence (P13569 with tags, fused parts or gaps DEL508-508): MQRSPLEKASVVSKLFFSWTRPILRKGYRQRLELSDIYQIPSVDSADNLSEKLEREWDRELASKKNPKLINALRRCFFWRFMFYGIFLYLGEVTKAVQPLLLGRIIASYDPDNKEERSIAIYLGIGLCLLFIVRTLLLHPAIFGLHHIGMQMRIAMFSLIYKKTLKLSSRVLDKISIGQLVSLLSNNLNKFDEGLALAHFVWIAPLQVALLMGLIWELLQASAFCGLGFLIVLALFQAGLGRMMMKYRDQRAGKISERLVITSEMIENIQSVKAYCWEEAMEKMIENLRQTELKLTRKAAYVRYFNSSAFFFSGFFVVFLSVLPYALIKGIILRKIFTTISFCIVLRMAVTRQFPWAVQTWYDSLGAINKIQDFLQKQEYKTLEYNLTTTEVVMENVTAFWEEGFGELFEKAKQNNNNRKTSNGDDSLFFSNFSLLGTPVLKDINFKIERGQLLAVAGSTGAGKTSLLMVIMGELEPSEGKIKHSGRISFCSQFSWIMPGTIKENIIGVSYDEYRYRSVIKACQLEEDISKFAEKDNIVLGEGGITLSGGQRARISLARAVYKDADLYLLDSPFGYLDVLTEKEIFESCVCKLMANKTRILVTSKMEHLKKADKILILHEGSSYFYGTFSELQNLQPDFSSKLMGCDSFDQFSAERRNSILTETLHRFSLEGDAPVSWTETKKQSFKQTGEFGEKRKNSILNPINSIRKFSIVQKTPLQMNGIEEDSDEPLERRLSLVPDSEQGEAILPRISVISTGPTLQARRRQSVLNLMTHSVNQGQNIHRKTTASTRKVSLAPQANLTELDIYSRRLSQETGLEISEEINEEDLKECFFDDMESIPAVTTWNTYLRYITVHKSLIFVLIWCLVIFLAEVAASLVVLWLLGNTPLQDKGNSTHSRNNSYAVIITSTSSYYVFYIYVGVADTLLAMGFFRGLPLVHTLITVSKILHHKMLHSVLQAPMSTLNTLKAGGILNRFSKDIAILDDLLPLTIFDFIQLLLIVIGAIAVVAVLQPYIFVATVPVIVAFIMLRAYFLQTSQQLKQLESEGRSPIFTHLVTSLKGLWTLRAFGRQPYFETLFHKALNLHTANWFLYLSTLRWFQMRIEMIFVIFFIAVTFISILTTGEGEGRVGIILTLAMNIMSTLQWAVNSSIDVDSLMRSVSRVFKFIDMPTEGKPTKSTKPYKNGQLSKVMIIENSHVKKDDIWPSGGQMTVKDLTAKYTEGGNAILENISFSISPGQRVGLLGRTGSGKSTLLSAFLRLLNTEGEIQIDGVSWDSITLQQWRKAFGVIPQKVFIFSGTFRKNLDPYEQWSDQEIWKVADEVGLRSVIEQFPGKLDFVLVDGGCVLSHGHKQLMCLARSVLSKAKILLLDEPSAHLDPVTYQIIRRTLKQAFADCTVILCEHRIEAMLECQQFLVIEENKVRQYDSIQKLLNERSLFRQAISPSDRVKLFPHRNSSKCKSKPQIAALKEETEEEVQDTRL
Experimental: Primary lung epithelial cells homozygous for the Cystic Fibrosis-causing ΔF508 mutation were differentiated for a minimum of 4 weeks in an air-liquid interface on Costar 24 well HTS filter plates prior to the equivalent current (Ieq) measurements. Cells were apically mucus-washed for 30 minutes 24h prior to treatment with compounds. The basolateral media was removed and replaced with media containing the compound of interest diluted to its final concentration from DMSO stocks. Treated cells were incubated at 37° C. and 5% CO2 for 24 hours. At the end of the treatment period, the media was changed to the Ieq experimental solution for 30 minutes before the experiment and plates are maintained in a CO2-free incubator during this period. The plates containing the cells were then placed in pre-warmed heating blocks at 36° C.±0.5 for 15 minutes before measurements are taken. The transepithelial voltage (VT) and conductance (GT) were measured using a custom 24 channel current clamp (TECC-24) with 24 well electrode manifold. The Ieq assay measurements were made following additions with standardized time periods: • 1. The baseline VT and GT values were measured for approximately 20 minutes. • 2. Benzamil was added to block ENaC for 15 minutes. • 3. Forskolin plus VX-770 were added to maximally activate ΔF508-CFTR for 27 minutes. • 4. Bumetanide was added to inhibit the NaK2Cl cotransporter and shut-off secretion of chloride.
The activity data captured was the area under the curve (AUC) for the traces of the equivalent chloride current. The AUC was collected from the time of the forskolin/VX-770 addition until the inhibition by bumetanide addition. Correction in response to compound treatment was scored as the increase in the AUC for compound-treated samples over that of vehicle-treated samples. (** indicates activity ≥200% of VX-809 (1 uM) with compound at 10 uM and VX-809 at 1 uM; * indicates activity 100-200% of VX-809 (1 uM) with compound at 10 uM and VX-809 at 1 uM. ^##indicates activity ≥200% of VX-809 (3 uM) with compound at 10 uM and VX-809 at 3 uM; ^#indicates activity 100-200% of VX-809 (3 uM) with compound at 10 uM and VX-809 at 3 uM

ΔF508-CFTR [2] = target: T1, ΔF508-CFTR; experiment: Ussing measurements; type: cell-based; details: compound at 10 uM and VX-809 at 3 uM; primary hBE cells homozygous ΔF508; 24 hours treatment
Experimental: As discussed above, Ussing measurements are used to measure CFTR activity. In this method, primary lung epithelial cells (hBEs) homozygous for the Cystic Fibrosis-causing ΔF508 mutation are differentiated for a minimum of 4 weeks in an air-liquid interface on SnapWell filter plates prior to the Ussing measurements. Cells are apically mucus-washed for 30 minutes prior to treatment with compounds. The basolateral media is removed and replaced with media containing the compound of interest diluted to its final concentration from DMSO stocks. Treated cells are incubated at 37° C. and 5% CO2 for 24 hours. At the end of the treatment period, the cells on filters are transferred to the Ussing chamber and equilibrated for 30 minutes. The short-circuit current is measured in voltage clamp-mode (Vhold=0 mV), and the entire assay is conducted at a temperature of 36° C. −36.5° C. Once the voltages stabilized, the chambers are clamped, and data is recorded by pulse readings every 5 seconds. Following baseline current stabilization, the following additions can be applied and the changes in current and resistance of the cells can be monitored: • 1. Benzamil to the apical chamber to inhibit ENaC sodium channel. • 2. Forskolin to both chambers to activate ΔF508-CFTR by phosphorylation. • 3. Genistein to both chambers to potentiate ΔF508-CFTR channel opening. • 4. CFTRinh-172 to the apical chamber to inhibit ΔF508-CFTR Cl-conductance.
The inhibitable current (that current that is blocked by CFTRinh-172) is measured as the specific activity of the ΔF508-CFTR channel, and increases in response to compound in this activity over that observed in vehicle-treated samples are identified as the correction of ΔF508-CFTR function imparted by the compound tested.

Row | SMILES | leq (AUC of equivalent chloride current, activity relative to VX-809) (ΔF508-CFTR [1]) | Ussing (CFTRinh-172 inhibitable current, activity relative to VX-809) (ΔF508-CFTR [2])
1 | O=C(NCC1CCCO1)c1ncc(-c2ccccc2)s1 (stereo not drawn) [Example 1, 5-phenyl-N-((tetrahydrofuran-2-yl)methyl)thiazole-2-carboxamide] | ** (activity ≥200% of VX-809 (1 uM) with compound at 10 uM and VX-809 at 1 uM) | –
2 | COCCNC(=O)c1ncc(-c2ccccc2)s1 [Example 2, N-(2-methoxyethyl)-5-phenylthiazole-2-carboxamide] | ** (activity ≥200% of VX-809 (1 uM) with compound at 10 uM and VX-809 at 1 uM) | –
3 | O=C(NCCN1CCOCC1)c1ncc(-c2ccccc2)s1 [Example 3, N-(2-morpholinoethyl)-5-phenylthiazole-2-carboxamide] | ** (activity ≥200% of VX-809 (1 uM) with compound at 10 uM and VX-809 at 1 uM) | –
4 | O=C(NCCCn1ccnc1)c1ncc(-c2ccccc2)s1 [Example 4, N-(3-(1H-imidazol-1-yl)propyl)-5-phenylthiazole-2-carboxamide] | ** (activity ≥200% of VX-809 (1 uM) with compound at 10 uM and VX-809 at 1 uM) | –
5 | Cn1nccc1CCCNC(=O)c1ncc(-c2ccccc2)s1 [Example 5, N-(3-(1-methyl-1H-pyrazol-5-yl)propyl)-5-phenylthiazole-2-carboxamide] | * (activity 100-200% of VX-809 (1 uM) with compound at 10 uM and VX-809 at 1 uM) | –
6 | O=C(NCCc1nnc(CO)s1)c1ncc(-c2ccccc2)s1 [Example 6, N-(2-(5-(hydroxymethyl)-1,3,4-thiadiazol-2-yl)ethyl)-5-phenylthiazole-2-carboxamide] | ** (activity ≥200% of VX-809 (1 uM) with compound at 10 uM and VX-809 at 1 uM) | ## (activity ≥200% of VX-809 (3 uM) with compound at 10 uM and VX-809 at 3 uM)
7 | O=C(NCCc1nnc(CO)o1)c1ncc(-c2ccccc2)s1 [Example 7, N-(2-(5-(hydroxymethyl)-1,3,4-oxadiazol-2-yl)ethyl)-5-phenylthiazole-2-carboxamide] | ** (activity ≥200% of VX-809 (1 uM) with compound at 10 uM and VX-809 at 1 uM) | ## (activity ≥200% of VX-809 (3 uM) with compound at 10 uM and VX-809 at 3 uM)
8 | Cc1c(CO)nnn1CCNC(=O)c1ncc(-c2ccccc2)s1 [Example 8, N-(2-(4-(hydroxymethyl)-5-methyl-1H-1,2,3-triazol-1-yl)ethyl)-5-phenylthiazole-2-carboxamide] | ** (activity ≥200% of VX-809 (1 uM) with compound at 10 uM and VX-809 at 1 uM) | ## (activity ≥200% of VX-809 (3 uM) with compound at 10 uM and VX-809 at 3 uM)
9 | Cc1nnn(CCNC(=O)c2ncc(-c3ccccc3)s2)c1CO [Example 9, N-(2-(5-(hydroxymethyl)-4-methyl-1H-1,2,3-triazol-1-yl)ethyl)-5-phenylthiazole-2-carboxamide] | ** (activity ≥200% of VX-809 (1 uM) with compound at 10 uM and VX-809 at 1 uM) | –
10 | O=C(NC1CC(c2nnc(CO)o2)C1)c1ncc(-c2ccccc2)s1 (stereo not drawn) [Example 10, N-cis-3-(5-(hydroxymethyl)-1,3,4-oxadiazol-2-yl)cyclobutyl)-5-phenylthiazole-2-carboxamide] | – | ## (activity ≥200% of VX-809 (3 uM) with compound at 10 uM and VX-809 at 3 uM)
11 | C[C@@H](O)c1nnc(C2CC(NC(=O)c3ncc(-c4ccccc4)s3)C2)o1 (stereo partly drawn) [Example 11] | – | ## (activity ≥200% of VX-809 (3 uM) with compound at 10 uM and VX-809 at 3 uM)
12 | O=C(NC1CC(n2cc(CO)nn2)C1)c1ncc(-c2ccccc2)s1 (stereo not drawn) [Example 12, N-trans-3-(5-(hydroxymethyl)-1H-1,2,3-triazol-1-yl)cyclobutyl)-5-phenylthiazole-2-carboxamide] | – | ## (activity ≥200% of VX-809 (3 uM) with compound at 10 uM and VX-809 at 3 uM)
